Laboratory results reported in patent US8143374B2, “Polypeptide derivatives of parathyroid hormone (PTH)” (The General Hospital Corporation, priority 2006, dated 2012).
Read-outs that look alike come from different tables or passages of the source. Where a SMILES comes first, the peptide text is derived from it. Where no end group is shown, it is not given here. [ ]: non-standard residue; d: D form. Apa = (S)-2-amino-4[(2-amino)pyrimidinyl]methylalanine; Phe(4-guanidino) = N=C(N)Nc1ccc(C[C@H](N)C(=O)O)cc1; Cha = N[C@@H](CC1CCCCC1)C(=O)O; Orn = NCCC[C@H](N)C(=O)O

How the values were obtained:
wild-type human PTHR = target: T1, wild-type human PTHR (Homo sapiens, UniProt Q03431); test: Competition binding in intact HKRK-B7 cells with 125I-PTH(1-34) tracer; conditions: for reduction (alteration) of apparent binding affinity for the intact PTHR relative to parent peptide: versus the respective parent peptide; for IC50: intact HKRK-B7 cells, read-out: PTHR-WT (HKRK-B7 cells) IC50
T1 construct: expressed in transfected cells
T1 sequence (Q03431 27-593): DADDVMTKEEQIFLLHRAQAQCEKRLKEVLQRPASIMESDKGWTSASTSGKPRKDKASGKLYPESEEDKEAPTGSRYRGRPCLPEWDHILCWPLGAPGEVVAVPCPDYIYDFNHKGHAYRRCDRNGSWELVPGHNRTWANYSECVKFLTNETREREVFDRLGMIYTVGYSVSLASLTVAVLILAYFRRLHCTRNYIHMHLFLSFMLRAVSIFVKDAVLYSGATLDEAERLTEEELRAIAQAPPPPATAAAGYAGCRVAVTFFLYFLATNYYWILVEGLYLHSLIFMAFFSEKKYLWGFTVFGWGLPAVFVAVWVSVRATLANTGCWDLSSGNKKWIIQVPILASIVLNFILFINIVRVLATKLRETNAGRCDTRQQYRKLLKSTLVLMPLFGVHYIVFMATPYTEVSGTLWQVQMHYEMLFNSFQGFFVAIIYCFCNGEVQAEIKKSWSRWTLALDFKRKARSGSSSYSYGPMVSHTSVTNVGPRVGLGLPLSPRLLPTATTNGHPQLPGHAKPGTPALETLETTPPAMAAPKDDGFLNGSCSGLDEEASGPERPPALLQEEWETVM
Experimental: Cell Culture—Cells were cultured at 37° C. in a humidified atmosphere containing 5% CO2 in Dulbecco's modified Eagle's medium (DMEM), supplemented with 10% fetal bovine serum (HyClone, Logan Utah), 100 units/ml penicillin G, and 100 ug/ml streptomycin penicillin G/streptomycin (Invitrogen Corp. Carlsbad, Calif.). For binding and cAMP studies performed with the intact PTHR, the HKRK-B7 and ROS 17/2.8 cell lines were used. HKRK-B7 cells are derived from the porcine kidney cell line LLC-PK1 and express, via stable DNA transfection, the wild-type human PTHR at an approximate surface density of 950,000 PTH-binding sites per cell. ROS 17/2.8 cells are rat osteosarcoma cells and express the endogenous PTHR at an approximate surface density of 80,000 PTH-binding sites per cell. The cells were plated and assayed in 24-well plates.
Receptor binding—Binding to the wild-type human PTHR in intact HKRK-B7 cells and ROS 17/2.8 cells was assessed using ^125I-PTH(1-34) as a tracer radioligand, as described (Shimizu, M., (2001) Endocrinology 142:3068-3074). In brief, the cells in 24-well plates (about 500,000 cells per well) were incubated in binding buffer containing radioligand (about 100,000 cpm per well) with or without unlabeled peptide ligand (3×10^−9 to 1×10^−5 M) for four hours at 15° C. The binding mixture was then removed by aspiration, the cells were rinsed three times with binding buffer, lysed in 1 M NaOH, and the entire lysate was counted for gamma-irradiation in a gamma counter. Binding to PTHR-delNt in COS-7 cell membranes was assessed in 96-well, vacuum filtration plates (Multiscreen-Durapore HV, […] membranes, Millipore Corp., Millford, Mass.) using ^125I-[Aib^1,3,M]PTH(1-15)NH2 as a tracer radioligand, as described (Dean, T., (2006) Mol Endocrinol 20:931-942). In brief, cell membranes (20 μg/well) were incubated in membrane binding buffer containing radioligand (30,000 cpm/well) with or without unlabeled peptide ligand (3×10^−9 to 1×10^−5 M) for 90 minutes at 21° C. The plates were then subject to rapid vacuum filtration, the filters were washed once with buffer, detached from the plate and counted for gamma-irradiation in a gamma counter. Non-specific binding was defined as the binding observed in the presence of 1×10^−6 M PTH(1-31)NH2 for HKRK-B7 and ROS 17/2.8 cells, and 1×10^−6 M [Aib^1,3,M]PTH(1-15)NH2 for PTHR-delNt. Specifically bound radioactivity was calculated as a percentage of the radioactivity specifically bound in the absence of competing ligand.
Data and statistical calculations—Data were processed for curve fitting and derivation of IC50 and EC50 values using least-squares, nonlinear regression analysis and the four parameter logistic equation: […], where y, ymin and ymax are the observed, minimum and maximum response values, respectively; x is ligand concentration, and n is the slope factor. In cases where incomplete inhibition of binding occurred: i.e. with certain PTH(1-31) analogs binding to PTHR-delNt, the curve fits and IC50 values were derived by extrapolating the data to the maximum inhibition attained by [Aib^1,3,M]PTH(1-15)NH2. Paired data sets were statistically compared using a two-tailed Student's t-test, assuming unequal variances for the two sets.

[1] = Circular dichroism spectroscopy, helical residues per peptide chain; type: physicochemical; conditions: calculated from [θ]222
In short: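 CD spectra recorded at 20 °C, four scans averaged; peptide concentration checked by A280 with the single-Trp extinction coefficient of 5700 M^−1. Helical residues per chain calculated as −[θ]222×30/28,000 from mean residue ellipticity at 222 nm.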

[2] = [Ala1,Arg19]hPTH(1-31)NH2 analogs
[3] = hPTH(1-31)NH2 analogs, 125I-[Nle8,21,Tyr34]ratPTH(1-34)NH2 tracer
[4] = [Ala1,Arg19]hPTH(1-31)NH2 analogs, 125I-[Nle8,21,Tyr34]rPTH(1-34)NH2 tracer

Row | Molecule | reduction (alteration) of apparent binding affinity for the intact PTHR relative to parent peptide (wild-type human PTHR; HKRK-B7 cells) | CD helical residues [1, 2] | IC50 (wild-type human PTHR; [3]) [nM] | other results
1 | CC[C@H](C)[C@H](NC(=O)[C@H](CCC(=O)O)NC(=O)[C@H](CO)NC(=O)[C@@H](NC(=O)[C@H](C)N)C(C)C)C(=O)N[C@@H](CCC(N)=O)C(=O)N[C@@H](CC(C)C)C(=O)N[C@@H](CCSC)C(=O)N[C@@H](Cc1c[nH]cn1)C(=O)N[C@@H](CC(N)=O)C(=O)N[C@@H](CC(C)C)C(=O)NCC(=O)N[C@@H](CCCCN)C(=O)N[C@@H](Cc1c[nH]cn1)C(=O)N[C@@H](CC(C)C)C(=O)N[C@@H](CC(N)=O)C(=O)N[C@@H](CO)C(=O)N[C@@H](CCSC)C(=O)N[C@@H](CCCNC(=N)N)C(=O)N[C@@H](CC1CCCCC1)C(=O)N[C@H](C(=O)N[C@@H](CCC(=O)O)C(=O)N[C@@H](Cc1c[nH]c2ccccc12)C(=O)N[C@@H](CC(C)C)C(=O)N[C@@H](CCCNC(=N)N)C(=O)N[C@@H](CCCCN)C(=O)N[C@@H](CCCCN)C(=O)N[C@@H](CC(C)C)C(=O)N[C@@H](CCC(N)=O)C(=O)N[C@@H](CC(=O)O)C(=O)N[C@H](C(N)=O)C(C)C)C(C)C [Arg^20→Cha, AlaValSerGluIleGlnLeuMetHisAsnLeuGlyLysHisLeuAsnSerMetArgChaValGluTrpLeuArgLysLysLeuGlnAspVal] (H-AVSEIQLMHNLGKHLNSMR[Cha]VEWLRKKLQDV-NH2; N-terminus assumed) | 120 fold | 16 | – | –
2 | CC[C@H](C)[C@H](NC(=O)[C@H](CCC(=O)O)NC(=O)[C@H](CO)NC(=O)[C@@H](NC(=O)[C@@H](N)CO)C(C)C)C(=O)N[C@@H](CCC(N)=O)C(=O)N[C@@H](CC(C)C)C(=O)N[C@@H](CCSC)C(=O)N[C@@H](Cc1c[nH]cn1)C(=O)N[C@@H](CC(N)=O)C(=O)N[C@@H](CC(C)C)C(=O)NCC(=O)N[C@@H](CCCCN)C(=O)N[C@@H](Cc1c[nH]cn1)C(=O)N[C@@H](CC(C)C)C(=O)N[C@@H](CC(N)=O)C(=O)N[C@@H](CO)C(=O)N[C@@H](CCSC)C(=O)N[C@@H](CCC(=O)O)C(=O)N[C@@H](Cc1ccc(NC(=N)N)cc1)C(=O)N[C@H](C(=O)N[C@@H](CCC(=O)O)C(=O)N[C@@H](Cc1c[nH]c2ccccc12)C(=O)N[C@@H](CC(C)C)C(=O)N[C@@H](CCCNC(=N)N)C(=O)N[C@@H](CCCCN)C(=O)N[C@@H](CCCCN)C(=O)N[C@@H](CC(C)C)C(=O)N[C@@H](CCC(N)=O)C(=O)N[C@@H](CC(=O)O)C(=O)N[C@H](C(N)=O)C(C)C)C(C)C [Arg^20→Gph] (H-SVSEIQLMHNLGKHLNSME[Phe(4-guanidino)]VEWLRKKLQDV-NH2; N-terminus assumed) | – | – | > 10000 | detectable binding to the intact PTHR (in words) (wild-type human PTHR; HKRK-B7 cells): complete loss of detectable binding affinity
3 | CC[C@H](C)[C@H](NC(=O)[C@H](CCC(=O)O)NC(=O)[C@H](CO)NC(=O)[C@@H](NC(=O)[C@@H](N)CO)C(C)C)C(=O)N[C@@H](CCC(N)=O)C(=O)N[C@@H](CC(C)C)C(=O)N[C@@H](CCSC)C(=O)N[C@@H](Cc1c[nH]cn1)C(=O)N[C@@H](CC(N)=O)C(=O)N[C@@H](CC(C)C)C(=O)NCC(=O)N[C@@H](CCCCN)C(=O)N[C@@H](Cc1c[nH]cn1)C(=O)N[C@@H](CC(C)C)C(=O)N[C@@H](CC(N)=O)C(=O)N[C@@H](CO)C(=O)N[C@@H](CCSC)C(=O)N[C@@H](CCC(=O)O)C(=O)N[C@@H](CCCN)C(=O)N[C@H](C(=O)N[C@@H](CCC(=O)O)C(=O)N[C@@H](Cc1c[nH]c2ccccc12)C(=O)N[C@@H](CC(C)C)C(=O)N[C@@H](CCCNC(=N)N)C(=O)N[C@@H](CCCCN)C(=O)N[C@@H](CCCCN)C(=O)N[C@@H](CC(C)C)C(=O)N[C@@H](CCC(N)=O)C(=O)N[C@@H](CC(=O)O)C(=O)N[C@H](C(N)=O)C(C)C)C(C)C [Arg^20→Orn] (H-SVSEIQLMHNLGKHLNSME[Orn]VEWLRKKLQDV-NH2; N-terminus assumed) | – | – | > 10000 | CD helical residues ([1]; hPTH(1-31)NH2 analogs): 6
4 | AVSEIQLMHNLGKHLNSMERVEWLRKKLQDV-NH2 [Arg^19→Glu] | two- to five-fold reductions | 9 | – | IC50 (wild-type human PTHR; [4]): 125 ± 29 nM
5 | AVSEIQLMHNLGKHLNSMRREEWLRKKLQDV-NH2 [Val^21→Glu] | 12 fold | 7 | – | –
6 | Arg^20→Apa: hPTH(1-31)NH2 analog with Arg^20 replaced by (S)-2-amino-4[(2-amino)pyrimidinyl]methylalanine (Apa) (SVSEIQLMHNLGKHLNSME[Apa]VEWLRKKLQDV-NH2) | – | – | > 10000 | detectable binding to the intact PTHR (in words) (wild-type human PTHR; HKRK-B7 cells): complete loss of detectable binding affinity

Continued, in another order:

Row | reduction (alteration) of apparent binding affinity for the intact PTHR relative to parent peptide (wild-type human PTHR; HKRK-B7 cells) | CD helical residues [1, 2] | IC50 (wild-type human PTHR; [3]) [nM] | Molecule | other results
7 | – | 8 | – | CC[C@H](C)[C@H](NC(=O)[C@H](CCC(=O)O)NC(=O)[C@H](CO)NC(=O)[C@@H](NC(=O)[C@H](C)N)C(C)C)C(=O)N[C@@H](CCC(N)=O)C(=O)N[C@@H](CC(C)C)C(=O)N[C@@H](CCSC)C(=O)N[C@@H](Cc1c[nH]cn1)C(=O)N[C@@H](CC(N)=O)C(=O)N[C@@H](CC(C)C)C(=O)NCC(=O)N[C@@H](CCCCN)C(=O)N[C@@H](Cc1c[nH]cn1)C(=O)N[C@@H](CC(C)C)C(=O)N[C@@H](CC(N)=O)C(=O)N[C@@H](CO)C(=O)N[C@@H](CCSC)C(=O)N[C@@H](CCCNC(=N)N)C(=O)N[C@@H](CCCNC(=N)N)C(=O)N[C@H](C(=O)N[C@@H](CCC(=O)O)C(=O)N[C@@H](Cc1c[nH]c2ccccc12)C(=O)N[C@@H](CC(C)C)C(=O)N[C@@H](CCCNC(=N)N)C(=O)N[C@@H](CCCCN)C(=O)N[C@@H](CCCCN)C(=O)N[C@@H](CC(C)C)C(=O)N[C@@H](CCC(N)=O)C(=O)N[C@@H](CC1CCCCC1)C(=O)N[C@H](C(N)=O)C(C)C)C(C)C [Asp^30→Cha] (H-AVSEIQLMHNLGKHLNSMRRVEWLRKKLQ[Cha]V-NH2; N-terminus assumed) | IC50 (wild-type human PTHR; [4]): 54 ± 7 nM
8 | – | 6 | – | AVSEIQLMHNLGKHLNSMRRVEWERKKLQDV-NH2 [Leu^24→Glu] | detectable binding to the intact PTHR (in words) (wild-type human PTHR; HKRK-B7 cells): abolished detectable binding; IC50 (wild-type human PTHR; [4]): > 10000 nM
9 | two- to five-fold reductions | 5 | – | AVSEIQLMHNLGKHLNSMRRVEWLEKKLQDV-NH2 [Arg^25→Glu] | –
10 | two- to five-fold reductions | 6 | – | AVSEIQLMHNLGKHLNSMRRVEWLREKLQDV-NH2 [Lys^26→Glu] | –
11 | two- to five-fold reductions | 5 | – | AVSEIQLMHNLGKHLNSMRRVEWLRKELQDV-NH2 [Lys^27→Glu] | –
12 | – | – | 49 ± 9 | SVSEIQLMHNLGKHLNSMARVAWLRKKLQDV-NH2 [Glu^19,22→Ala,Ala] | enhancement in apparent PTHR-binding affinity relative to parent peptide (wild-type human PTHR; HKRK-B7 cells, versus PTH(1-31)NH2): did not lead to further improvements; CD helical residues ([1]; hPTH(1-31)NH2 analogs): 9
